IC50 data for two compounds are collected here from ChEMBL document CHEMBL4765362, “Thirty Years of HDAC Inhibitors: 2020 Insight and Hindsight” (J Med Chem, 2020).

Assay [1] addresses T1, Histone deacetylase 11 (Homo sapiens, UniProt Q96DB2).
T1 sequence (Q96DB2 whole entry): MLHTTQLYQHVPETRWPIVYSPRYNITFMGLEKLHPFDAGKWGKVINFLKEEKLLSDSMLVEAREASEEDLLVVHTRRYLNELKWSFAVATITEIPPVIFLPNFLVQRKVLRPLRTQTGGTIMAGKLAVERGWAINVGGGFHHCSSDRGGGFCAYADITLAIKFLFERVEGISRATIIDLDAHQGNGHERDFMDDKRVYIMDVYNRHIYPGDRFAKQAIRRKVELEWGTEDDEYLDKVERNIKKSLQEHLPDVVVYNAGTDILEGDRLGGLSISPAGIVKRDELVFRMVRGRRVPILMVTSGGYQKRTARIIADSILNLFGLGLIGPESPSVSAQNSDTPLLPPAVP
The experiment in a line: Inhibition of HDAC11 (unknown origin) using p53 (379 to 382 residues)(RHKK(Ac)-AMC) as substrate by fluorescent method.

Assay [2] addresses T2, Histone deacetylase 7 (Homo sapiens, UniProt Q8WUI4).
T2 sequence (Q8WUI4 whole entry): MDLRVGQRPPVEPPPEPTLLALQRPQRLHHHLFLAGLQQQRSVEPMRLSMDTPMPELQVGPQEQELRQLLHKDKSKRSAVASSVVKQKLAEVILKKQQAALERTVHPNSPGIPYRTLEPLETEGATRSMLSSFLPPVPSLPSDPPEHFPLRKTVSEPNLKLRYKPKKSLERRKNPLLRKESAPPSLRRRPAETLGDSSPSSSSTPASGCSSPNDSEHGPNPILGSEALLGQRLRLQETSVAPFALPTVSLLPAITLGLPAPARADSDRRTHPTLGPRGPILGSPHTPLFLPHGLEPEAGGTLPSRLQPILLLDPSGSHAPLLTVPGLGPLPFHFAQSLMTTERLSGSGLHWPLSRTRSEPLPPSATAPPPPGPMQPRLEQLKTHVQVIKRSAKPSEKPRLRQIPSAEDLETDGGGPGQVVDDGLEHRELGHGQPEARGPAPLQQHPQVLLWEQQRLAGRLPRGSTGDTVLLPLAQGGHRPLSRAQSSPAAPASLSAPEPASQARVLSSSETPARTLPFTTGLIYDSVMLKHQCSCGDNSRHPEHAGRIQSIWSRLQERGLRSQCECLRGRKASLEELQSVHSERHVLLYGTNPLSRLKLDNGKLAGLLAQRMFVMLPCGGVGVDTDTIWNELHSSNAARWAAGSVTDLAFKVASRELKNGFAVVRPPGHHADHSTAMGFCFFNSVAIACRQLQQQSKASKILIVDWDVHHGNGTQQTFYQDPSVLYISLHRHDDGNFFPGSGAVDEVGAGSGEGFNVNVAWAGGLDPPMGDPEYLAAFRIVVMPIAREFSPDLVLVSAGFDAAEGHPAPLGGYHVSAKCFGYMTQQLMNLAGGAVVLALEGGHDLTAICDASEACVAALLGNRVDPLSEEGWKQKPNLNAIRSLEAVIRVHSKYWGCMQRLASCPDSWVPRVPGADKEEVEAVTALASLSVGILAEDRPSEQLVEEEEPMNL
The assay can be described thus: Inhibition of HDAC7 (unknown origin) using HDAC class IIa substrate (trifluoroacetyl-lysine-AMC) as substrate by fluorescent method.

In assay [3] the target is T3, Histone deacetylase 4 (Homo sapiens, UniProt P56524). The assay can be described thus: Inhibition of HDAC4 (unknown origin) using HDAC class IIa substrate (trifluoroacetyl-lysine-AMC) as substrate by fluorescent method.
T3 sequence (P56524 whole entry): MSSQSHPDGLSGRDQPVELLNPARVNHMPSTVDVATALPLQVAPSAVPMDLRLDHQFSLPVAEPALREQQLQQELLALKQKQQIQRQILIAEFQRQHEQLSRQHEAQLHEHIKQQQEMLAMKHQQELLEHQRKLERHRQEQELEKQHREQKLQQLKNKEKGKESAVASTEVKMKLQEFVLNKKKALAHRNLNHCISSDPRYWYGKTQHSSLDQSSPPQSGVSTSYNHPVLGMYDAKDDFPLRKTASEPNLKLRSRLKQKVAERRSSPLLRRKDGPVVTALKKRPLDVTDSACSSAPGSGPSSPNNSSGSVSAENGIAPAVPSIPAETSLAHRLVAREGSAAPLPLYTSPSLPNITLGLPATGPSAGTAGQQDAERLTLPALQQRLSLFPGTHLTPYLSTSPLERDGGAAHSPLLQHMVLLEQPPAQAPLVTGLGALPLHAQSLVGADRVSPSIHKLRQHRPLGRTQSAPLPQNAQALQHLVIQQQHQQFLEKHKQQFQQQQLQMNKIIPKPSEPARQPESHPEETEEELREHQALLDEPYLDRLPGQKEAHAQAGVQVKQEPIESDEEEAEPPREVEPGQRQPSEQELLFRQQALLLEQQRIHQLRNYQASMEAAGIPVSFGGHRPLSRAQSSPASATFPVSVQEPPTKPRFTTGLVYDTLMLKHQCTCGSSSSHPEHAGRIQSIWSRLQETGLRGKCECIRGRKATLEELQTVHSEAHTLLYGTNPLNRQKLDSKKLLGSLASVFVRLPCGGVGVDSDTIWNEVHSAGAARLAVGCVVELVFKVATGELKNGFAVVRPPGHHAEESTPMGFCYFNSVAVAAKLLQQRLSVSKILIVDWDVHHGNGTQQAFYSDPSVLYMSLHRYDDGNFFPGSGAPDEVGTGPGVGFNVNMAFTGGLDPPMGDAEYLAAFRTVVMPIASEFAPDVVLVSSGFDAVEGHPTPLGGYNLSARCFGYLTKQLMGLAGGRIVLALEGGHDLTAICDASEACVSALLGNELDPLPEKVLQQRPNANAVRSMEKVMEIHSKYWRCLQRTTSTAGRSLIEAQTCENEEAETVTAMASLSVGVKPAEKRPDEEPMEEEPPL
Assay [4] addresses T3, Histone deacetylase 4. The assay can be described thus: Inhibition of human full length C-terminal Flag tagged HDAC4 expressed in HEK293T cells using H3K9-myristoyl peptide as substrate by HPLC method.
For assay [5], the target named is T4, Histone deacetylase 8 (Homo sapiens, UniProt Q9BY41).
T4 sequence (Q9BY41 whole entry): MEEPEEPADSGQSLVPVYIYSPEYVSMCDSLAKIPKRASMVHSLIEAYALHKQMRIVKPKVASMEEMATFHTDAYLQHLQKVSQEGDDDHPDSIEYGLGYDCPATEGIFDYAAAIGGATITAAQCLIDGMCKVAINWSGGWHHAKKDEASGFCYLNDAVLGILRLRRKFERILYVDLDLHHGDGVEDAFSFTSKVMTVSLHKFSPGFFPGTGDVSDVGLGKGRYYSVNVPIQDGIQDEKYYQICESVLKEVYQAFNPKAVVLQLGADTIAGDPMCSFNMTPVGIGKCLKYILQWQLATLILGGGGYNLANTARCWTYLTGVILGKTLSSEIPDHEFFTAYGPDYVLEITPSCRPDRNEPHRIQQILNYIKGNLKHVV
The experiment in a line: Inhibition of HDAC8 (unknown origin).

The target of assay [6] is T5, Polyamine deacetylase HDAC10 (Homo sapiens, UniProt Q969S8).
T5 sequence (Q969S8 whole entry): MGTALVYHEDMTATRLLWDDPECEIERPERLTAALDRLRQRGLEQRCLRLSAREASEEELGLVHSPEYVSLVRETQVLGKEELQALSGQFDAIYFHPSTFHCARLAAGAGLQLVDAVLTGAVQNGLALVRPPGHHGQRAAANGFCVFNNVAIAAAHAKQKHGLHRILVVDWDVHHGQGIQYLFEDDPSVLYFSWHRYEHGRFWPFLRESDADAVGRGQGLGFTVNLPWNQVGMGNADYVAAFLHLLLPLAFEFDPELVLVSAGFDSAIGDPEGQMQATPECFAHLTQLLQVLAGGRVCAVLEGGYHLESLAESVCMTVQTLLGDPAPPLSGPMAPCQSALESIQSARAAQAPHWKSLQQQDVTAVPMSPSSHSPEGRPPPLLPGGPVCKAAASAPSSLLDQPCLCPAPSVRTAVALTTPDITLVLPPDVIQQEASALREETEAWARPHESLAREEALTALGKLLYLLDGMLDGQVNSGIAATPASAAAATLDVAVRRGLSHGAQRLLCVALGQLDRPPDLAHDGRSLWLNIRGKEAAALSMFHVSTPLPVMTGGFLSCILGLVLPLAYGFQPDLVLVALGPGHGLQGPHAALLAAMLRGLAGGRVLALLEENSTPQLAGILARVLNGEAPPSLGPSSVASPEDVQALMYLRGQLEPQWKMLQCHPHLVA
The experiment in a line: Inhibition of HDAC10 (unknown origin).

The structures appear in SMILES notation.

`Cn1cc(-c2ccc(S(=O)(=O)n3ccc(/C=C/C(=O)Nc4ccccc4N)c3)cc2)cn1` [DOMATINOSTAT]: the figures for the IC50 in assay [1], in assay [2] and in assay [3] were 9.7 µM, greater than 10 µM and greater than 10 µM, respectively.

For the compound `CCCCCCCCCCCCCCCCNNC(=O)c1cccs1`, the IC50 in assay [4] was greater than 10 µM; in assay [5], 6 µM; in assay [6], greater than 10 µM.
